The results in this text go back to patent US20240294522A1 (Lead Discovery Center GmbH, priority 2021, published 2024).

Molecules are shown by their SMILES.

The target of one experiment is T1, GRK5 (Homo sapiens, UniProt P34947).
T1 construct: purchased Thermo Scientific
In words: Lance Kinase Activity Assay, GRK5. The settings on record: biochemical Lance kinase activity assay; class symbols A-F; read-out: GRK5 LANCE Assay (IC-50). The protocol:
(§1) This protocol describes how the Lance Kinase Activity Assay was performed to determine IC50 values of compounds of general formula (I) against GRK5 and GRK2.
(§2) The principle behind this enzymatic assay is based upon the phosphorylation of the Ulight-peptide substrate. It is detected by using a specific EU-labeled anti-phospho peptide antibody. The binding of the Eu labeled anti-phospho peptide antibody to the phosphorylated ULight labeled peptide gives rise to a FRET-signal. Binding of an inhibitor to the kinase prevents phosphorylation of the Ulight-substrate, resulting in a loss of FRET. In tables 2 and 3 the relevant information for these two LANCE assays is summarized.
(§3) For every sample, 2 μl of assay buffer (50 mM HEPES pH 7,5, 10 mM MgCL2, 1 mM EGTA 0,01% Tween 20, 1% DMSO, 2 mM DTT) were transferred into a suitable assay plate (e.g. Corning #3673). Compounds were added in a concentration range from 10 μM to 0.0025 μM using an acoustic dispenser (Echo520 from Labcycte, San Jose, USA) equipped with Echo Dose Response software. After that 6 μl of kinase-substrate mix was added. Reaction was started by addition of 2 μl ATP working solution and mixed using a Bioshake 5000 microplate shaker (Q Instruments, Jena, Germany).
(§4) After 1 h incubation at room temperature the reaction was stopped with 10 μl detection mix containing the Eu-labeled phosphospecific antibody and 10 mM EDTA. After a second incubation period of 1 h at room temperature the FRET signal was measured at 340 nm excitation, 665 nm and 615 nm emission (for the ULight-substrate and Eu-AB, respectively) with an Envision microplate reader (Perkin Elmer, Waltham, MA, USA) with 50 μs delay and 300 μs integration time. IC50 values were determined from the sigmoidal dose response curves with the software Quattro Workflow (Quattro GmbH, Munich, Germany).
(§5) Inhibition is indicated as IC50 [nM] (“−”=not measured). Compounds having an activity designated as “A” provided an IC50≤50 nM; compounds having an activity designated as “B” provided an 50 nM<IC50≤100 nM; compounds having an activity designated as “C” provided an 100 nM<IC50≤500 nM; compounds having an activity designated as “D” provided an 500 nM<IC50≤1000 nM; compounds having an activity designated as “E” provided an 1000 nM<IC50≤10000 nM; and compounds having an activity designated as “F” provided an IC50>10000 nM.
On the technique in general: Time-resolved FRET reads energy transfer from a long-lived donor to a nearby acceptor.

The target in a further experiment is T2, GRK2 (Homo sapiens, UniProt P25098).
T2 construct: purchased Thermo Scientific
T2 sequence (P25098 1-689): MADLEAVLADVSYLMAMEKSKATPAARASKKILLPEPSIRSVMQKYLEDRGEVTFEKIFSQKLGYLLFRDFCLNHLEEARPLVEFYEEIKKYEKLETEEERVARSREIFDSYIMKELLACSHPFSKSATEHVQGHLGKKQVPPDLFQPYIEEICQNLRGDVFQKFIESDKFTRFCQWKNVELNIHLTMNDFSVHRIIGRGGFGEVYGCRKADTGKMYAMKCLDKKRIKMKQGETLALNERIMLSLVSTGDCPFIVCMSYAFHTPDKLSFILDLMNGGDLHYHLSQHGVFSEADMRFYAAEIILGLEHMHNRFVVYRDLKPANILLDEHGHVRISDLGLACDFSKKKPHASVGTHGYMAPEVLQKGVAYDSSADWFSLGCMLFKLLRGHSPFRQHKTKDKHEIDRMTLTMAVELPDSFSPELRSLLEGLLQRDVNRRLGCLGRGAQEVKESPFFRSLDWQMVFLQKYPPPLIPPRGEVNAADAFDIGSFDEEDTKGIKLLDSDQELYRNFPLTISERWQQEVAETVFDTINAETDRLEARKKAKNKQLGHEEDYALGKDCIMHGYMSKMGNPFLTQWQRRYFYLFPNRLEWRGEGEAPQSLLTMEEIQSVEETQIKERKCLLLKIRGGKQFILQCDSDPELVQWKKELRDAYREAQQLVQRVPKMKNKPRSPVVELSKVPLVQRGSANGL
In words: Lance Kinase Activity Assay, GRK2. Conditions: biochemical Lance kinase activity assay; class symbols A-F; read-out: GRK2 LANCE Assay (IC-50). The protocol:
as §1, §2, §3, §4, §5

T1 sequence (P34947 whole entry): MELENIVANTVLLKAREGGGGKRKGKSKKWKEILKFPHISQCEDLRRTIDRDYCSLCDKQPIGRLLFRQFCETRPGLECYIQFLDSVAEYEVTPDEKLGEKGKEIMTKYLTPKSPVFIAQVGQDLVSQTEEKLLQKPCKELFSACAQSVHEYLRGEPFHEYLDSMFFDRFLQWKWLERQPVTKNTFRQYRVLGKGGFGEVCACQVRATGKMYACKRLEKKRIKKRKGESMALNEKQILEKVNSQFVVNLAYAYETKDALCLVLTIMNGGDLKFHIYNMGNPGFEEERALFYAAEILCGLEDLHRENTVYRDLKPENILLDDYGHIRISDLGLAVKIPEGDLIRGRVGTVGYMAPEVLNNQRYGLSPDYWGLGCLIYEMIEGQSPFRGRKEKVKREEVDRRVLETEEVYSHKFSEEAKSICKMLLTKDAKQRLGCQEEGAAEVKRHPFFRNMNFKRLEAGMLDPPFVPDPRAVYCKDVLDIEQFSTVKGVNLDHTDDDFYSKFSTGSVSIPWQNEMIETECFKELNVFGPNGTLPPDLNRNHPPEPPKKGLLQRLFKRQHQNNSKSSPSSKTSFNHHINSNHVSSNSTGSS

On to `COc1ccc([C@@H](C)NC(=O)/C=C/c2c[nH]c3ncc(-c4cccc(CN(C)C)c4)cc23)cc1OC` [Example 190], for which the IC50 at GRK5 is at most 50 nM; on GRK2 it was 1000 to 10000 nM.

On to `N#C/C(=C\c1c[nH]c2ncccc12)C(=O)NC(C#N)c1ccccc1` (stereo not shown) [Example 49, (E)-2-cyano-N-(cyano(phenyl)methyl)-3-(1H-pyrrolo[2,3-b]pyridin-3-yl)acrylamide], for which the IC50 on GRK5 is 1000 to 10000 nM; at GRK2, over 10000 nM.

Take `COc1ccc([C@@H](C)NC(=O)/C(C#N)=C/c2c[nH]c3ncc(-c4ccc(F)cc4OC)cc23)cc1OC` [Example 123]: the IC50 on GRK5 was 100 to 500 nM; at GRK2, over 10000 nM.

`N#C/C(=C\c1c[nH]c2ncccc12)C(=O)NCc1ccc(F)cc1` [Example 57, (E)-2-cyano-N-(4-fluorobenzyl)-3-(1H-pyrrolo[2,3-b]pyridin-3-yl)acrylamide]: the IC50 at GRK5 fell in the range of 100 to 500 nM; on GRK2 it was 1000 to 10000 nM.

On to `C[C@@H](NC(=O)/C(C#N)=C/c1c[nH]c2ncc(-c3ccc(N4CCN(C)CC4)cc3)cc12)c1ccc(F)cc1` [Example 180], for which the values for the IC50 at GRK5 and on GRK2 were 50 to 100 nM and 100 to 500 nM, respectively.

Take `COc1ccc([C@@H](C)NC(=O)/C(C#N)=C/c2c[nH]c3ncc(OC4CCOCC4)cc23)cc1OC` [Example 111, (R,E)-2-cyano-N-(1-(3,4-dimethoxyphenyl)ethyl)-3-(5-((tetrahydro-2H-pyran-4-yl)oxy)-1H-pyrrolo[2,3-b]pyridin-3-yl)acrylamide]: the IC50 is at most 50 nM at GRK5 and 1000 to 10000 nM at GRK2.

As to `COc1ccc([C@@H](C)NC(=O)/C(C#N)=C/c2c[nH]c3ncc(-c4cnn(C5CCN(C(=O)OC(C)(C)C)CC5)c4)cc23)cc1OC` [Example 165], the figures for the IC50 on GRK5 and on GRK2 were 50 to 100 nM and 1000 to 10000 nM, respectively.

For `CS(=O)(=O)c1ccccc1CNC(=O)/C(C#N)=C/c1c[nH]c2ncccc12` [Example 39, (E)-2-cyano-N-(2-(methylsulfonyl)benzyl)-3-(1H-pyrrolo[2,3-b]pyridin-3-yl)acrylamide], the IC50 on GRK5 fell in the range of 100 to 500 nM; at GRK2, 1000 to 10000 nM.

As for `Cc1c(-c2cnn(C)c2)cnc2[nH]cc(/C=C(\C#N)C(=O)N[C@H](C)c3ccccc3)c12` [Example 97, (R,E)-2-cyano-3-(4-methyl-5-(1-methyl-1H-pyrazol-4-yl)-1H-pyrrolo[2,3-b]pyridin-3-yl)-N-(1-phenylethyl)acrylamide], the IC50 on GRK5 and on GRK2 was 500 to 1000 nM in each case.

For `COc1ccc([C@@H](C)NC(=O)/C=C/c2c[nH]c3ncc(-c4ccc(C5CCN(C)CC5)cc4)cc23)cc1OC` [Example 196, (R,E)-N-(1-(3,4-dimethoxyphenyl)ethyl)-3-(5-(4-(1-methylpiperidin-4-yl)phenyl)-1H-pyrrolo[2,3-b]pyridin-3-yl)acrylamide], the figures for the IC50 on GRK5 and at GRK2 were at most 50 nM and 100 to 500 nM, respectively.

As for `COc1ccc([C@@H](C)NC(=O)/C=C/c2c[nH]c3ncc(-c4cnn(CC(C)O)c4)cc23)cc1OC` (stereo partly drawn) [Example 214, (E)-N-((R)-1-(3,4-dimethoxyphenyl)ethyl)-3-(5-(1-(2-hydroxypropyl)-1H-pyrazol-4-yl)-1H-pyrrolo[2,3-b]pyridin-3-yl)acrylamide], the values for the IC50 on GRK5 and on GRK2 were at most 50 nM and 1000 to 10000 nM, respectively.

For the compound `O=C(/C=C/c1c[nH]c2nccc(Cl)c12)NCc1cccc(F)c1` [Example 8, (E)-3-(4-chloro-1H-pyrrolo[2,3-b]pyridin-3-yl)-N-(3-fluorobenzyl)acrylamide], the IC50 on GRK5 was 1000 to 10000 nM; on GRK2 it was 500 to 1000 nM.

As for `COc1ccc([C@@H](C)NC(=O)/C(C#N)=C/c2c[nH]c3nccc(-c4ccc(N5CCN(C)CC5)cc4)c23)cc1OC` [Example 171, (R,E)-2-cyano-N-(1-(3,4-dimethoxyphenyl)ethyl)-3-(4-(4-(4-methylpiperazin-1-yl)phenyl)-1H-pyrrolo[2,3-b]pyridin-3-yl)acrylamide], the values for the IC50 at GRK5 and at GRK2 were at most 50 nM and 1000 to 10000 nM, respectively.

With `N#C/C(=C\c1c[nH]c2ncccc12)C(=O)N[C@@H](c1ccccc1)C(F)(F)F` [Example 14, (S,E)-2-cyano-3-(1H-pyrrolo[2,3-b]pyridin-3-yl)-N-(2,2,2-trifluoro-1-phenylethyl)acrylamide], the IC50 lay in the range of 500 to 1000 nM at GRK5 and 1000 to 10000 nM at GRK2.

`C[C@@H](NC(=O)/C(C#N)=C/c1c[nH]c2ncccc12)c1cccc(F)c1` [Example 1, (R,E)-2-cyano-N-(1-(3-fluorophenyl)ethyl)-3-(1H-pyrrolo[2,3-b]pyridin-3-yl)acrylamide]: the IC50 on GRK5 and at GRK2 was 100 to 500 nM in each case.

In the case of `COc1ccc([C@@H](C)NC(=O)/C=C/c2c[nH]c3ncc(-c4cnn(C5COC5)c4)cc23)cc1OC` [Example 215, (R,E)-N-(1-(3,4-dimethoxyphenyl)ethyl)-3-(5-(1-(oxetan-3-yl)-1H-pyrazol-4-yl)-1H-pyrrolo[2,3-b]pyridin-3-yl)acrylamide], the IC50 at GRK5 is at most 50 nM; on GRK2, 1000 to 10000 nM.

As for `COc1ccc([C@@H](C)NC(=O)/C(C#N)=C/c2c[nH]c3ncc(-c4ccc(OCCCN(C)C)cc4)cc23)cc1OC` [Example 138], the IC50 on GRK5 is at most 50 nM; at GRK2 it was 500 to 1000 nM.

Consider `C[C@@H](NC(=O)/C(C#N)=C/c1c[nH]c2ncc(Cl)cc12)c1ccc(F)cc1` [Example 76, (R,E)-3-(5-chloro-1H-pyrrolo[2,3-b]pyridin-3-yl)-2-cyano-N-(1-(4-fluorophenyl)ethyl)acrylamide], for which the IC50 fell in the range of 100 to 500 nM at GRK5 and 500 to 1000 nM at GRK2.

On to `COc1ccc([C@@H](C)NC(=O)/C=C/c2c[nH]c3ncc(-c4cc(S(C)(=O)=O)ccc4C)cc23)cc1OC` [Example 248, (R,E)-N-(1-(3,4-dimethoxyphenyl)ethyl)-3-(5-(2-methyl-5-(methylsulfonyl)phenyl)-1H-pyrrolo[2,3-b]pyridin-3-yl)acrylamide], for which the IC50 is at most 50 nM at GRK5 and over 10000 nM at GRK2.

Consider `COc1ccc([C@@H](C)NC(=O)/C(C#N)=C/c2c[nH]c3ncc(-c4ccc(C(N)=O)cc4)cc23)cc1OC` [Example 126, (R,E)-4-(3-(2-cyano-3-((1-(3,4-dimethoxyphenyl)ethyl)amino)-3-oxoprop-1-en-1-yl)-1H-pyrrolo[2,3-b]pyridin-5-yl)benzamide], for which the IC50 on GRK5 was 50 to 100 nM; at GRK2, over 10000 nM.

As for `COc1ccc([C@@H](C)NC(=O)/C(C#N)=C/c2c[nH]c3ncc(OC4CCS(=O)(=O)CC4)cc23)cc1OC` [Example 105, (R,E)-2-cyano-N-(1-(3,4-dimethoxyphenyl)ethyl)-3-(5-((1,1-dioxidotetrahydro-2H-thiopyran-4-yl)oxy)-1H-pyrrolo[2,3-b]pyridin-3-yl)acrylamide], the results for the IC50 on GRK5 and at GRK2 were at most 50 nM and 1000 to 10000 nM, respectively.

Regarding `COc1ccc([C@@H](C)NC(=O)/C=C/c2c[nH]c3nccc(-c4ccc(CN5CCOCC5)cc4)c23)cc1OC` [Example 232, (R,E)-N-(1-(3,4-dimethoxyphenyl)ethyl)-3-(4-(4-(morpholinomethyl)phenyl)-1H-pyrrolo[2,3-b]pyridin-3-yl)acrylamide], the IC50 is 50 to 100 nM on GRK5 and 1000 to 10000 nM at GRK2.

In the case of `CC[C@@H](NC(=O)/C(C#N)=C/c1c[nH]c2ncccc12)c1ccccc1` [Example 68, (R,E)-2-cyano-N-(1-phenylpropyl)-3-(1H-pyrrolo[2,3-b]pyridin-3-yl)acrylamide], the IC50 on GRK5 and at GRK2 was 100 to 500 nM throughout.
